Experimental data reported in the supplement of paper PMC10307832.

Legend:
Test in all cases: relative viability (nuclei count vs DMSO), 5 days (fraction); higher = more cells survive
[1] = compound: CC1CC(=O)N(C2=CN=C(N=C2N1C3CCCC3)NC4=C(C=C(C=C4)C(=O)NC5CCN(CC5)C)OC)C [NPK76-II-72-1] + CC(C)C[C@H](NC(=O)[C@H](Cc1ccccc1)NC(=O)c1cnccn1)B(O)O [Bortezomib] (partner 0.002 µM)
In short: (§1)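 Dosing by pin tool came one day after lung cancer cell lines were seeded in 1536-well plates, using either one drug or a fixed anchor-drug dose plus five library-drug doses (not always all listed) in √10 steps. After 5 days, nuclei were counted on 4× images. Relative viability is treated-well nuclei count divided by vehicle-well nuclei count, and values are medians of duplicate plates.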

[2] = compound: CC1CC(=O)N(C2=CN=C(N=C2N1C3CCCC3)NC4=C(C=C(C=C4)C(=O)NC5CCN(CC5)C)OC)C [NPK76-II-72-1] + Cc1nc(Nc2ncc(C(=O)Nc3c(C)cccc3Cl)s2)cc(N2CCN(CCO)CC2)n1 [Dasatinib] (partner 0.075 µM)
In short: as §1

BI-2536 + Trametinib = compound: CC[C@@H]1C(=O)N(C)c2cnc(Nc3ccc(C(=O)NC4CCN(C)CC4)cc3OC)nc2N1C1CCCC1 [BI-2536] + CC(=O)Nc1cccc(-n2c(=O)n(C3CC3)c(=O)c3c(Nc4ccc(I)cc4F)n(C)c(=O)c(C)c32)c1 [Trametinib] (partner 0.02 µM)
In short: as §1

BI-2536 + Foretinib = compound: CC[C@@H]1C(=O)N(C)c2cnc(Nc3ccc(C(=O)NC4CCN(C)CC4)cc3OC)nc2N1C1CCCC1 [BI-2536] + COc1cc2c(Oc3ccc(NC(=O)C4(C(=O)Nc5ccc(F)cc5)CC4)cc3F)ccnc2cc1OCCCN1CCOCC1 [Foretinib] (partner 0.25 µM)
In short: as §1

Cell Line	relative viability ([1]; first compound 0.01 µM)	relative viability ([1]; first compound 0.03162 µM)	relative viability ([1]; first compound 0.1 µM)	relative viability ([1]; first compound 0.3162 µM)	relative viability ([1]; first compound 1 µM)	relative viability ([2]; first compound 0.01 µM)	relative viability ([2]; first compound 0.03162 µM)	relative viability ([2]; first compound 0.1 µM)	relative viability ([2]; first compound 0.3162 µM)	relative viability ([2]; first compound 1 µM)	relative viability (BI-2536 + Trametinib; first compound 0.01 µM)	relative viability (BI-2536 + Trametinib; first compound 0.03162 µM)	relative viability (BI-2536 + Trametinib; first compound 0.1 µM)	relative viability (BI-2536 + Trametinib; first compound 0.3162 µM)	relative viability (BI-2536 + Trametinib; first compound 1 µM)	relative viability (BI-2536 + Foretinib; first compound 0.01 µM)	relative viability (BI-2536 + Foretinib; first compound 0.03162 µM)	relative viability (BI-2536 + Foretinib; first compound 0.1 µM)	relative viability (BI-2536 + Foretinib; first compound 0.3162 µM)	relative viability (BI-2536 + Foretinib; first compound 1 µM)
NCI-H838	0.768	0.885	0.988	0.771	0.715	0.28	0.247	0.253	0.265	0.292	0.532	0.625	0.478	0.081	0.0789	0.953	1.06	0.636	0.145	0.134
NCI-H1755	0.932	0.898	0.95	0.98	1.08	0.377	0.448	0.429	0.357	0.497	0.78	0.784	0.689	0.367	0.363	0.949	0.819	0.618	0.27	0.292
HCC-78	0.532	0.565	0.398	0.52	0.998	0.384	0.363	0.449	0.346	0.402	0.829	0.837	0.814	0.562	0.246	0.554	0.505	0.534	0.402	0.226
IA-LM	0.738	0.798	0.871	0.933	0.857											1.24	1.14	0.518	0.0587	0.0439
NCI-H322M	1.17	1.3	1.24	1.39	1.36	0.268	0.241	0.249	0.234	0.256	0.535	0.473	0.564	0.435	0.361	0.98	0.842	0.834	0.389	0.319
NCI-H3122	1	1.01	0.935	1.03	1.02	0.796	0.802	0.76	0.697	0.956	0.226	0.239	0.209	0.131	0.171	0.969	0.916	0.488	0.122	0.118
COR-L23	0.942	1	0.889	0.961	0.99	0.439	0.533	0.554	0.433	0.526	0.579	0.582	0.394	0.0573	0.0949	1.04	1.04	0.453	0.128	0.0906
NCI-H1793						0.328	0.432	0.412	0.383	0.386	0.37	0.435	0.251	0.177	0.183	0.585	0.364	0.202	0.164	0.173
NCI-H1792	1.06	0.961	0.829	0.879	1.07	0.799		0.842	0.66	0.726	0.604	0.417	0.395	0.0597	0.0491					
NCI-H522						0.77	0.887	1.09	0.86	0.828	0.745	0.757	0.766	0.302	0.289					
NCI-H1299	0.994	1.07	1.02	1.02	1											1.15	1.09	0.773	0.308	0.242
NCI-H1648											0.463	0.409	0.434	0.28	0.289					
SK-MES-1						0.468	0.352	0.399	0.341	0.403	0.523	0.555	0.407	0.196	0.161	0.926	0.778	0.927	0.204	0.168
NCI-H2342						0.345	0.301	0.328	0.262	0.346		0.705	0.73	0.604	0.454	1.01	0.973	0.976	0.633	0.357
SW 900						0.496	0.574	0.378	0.78	0.572	0.929	0.942	0.875	0.828	0.147	0.775	0.8	0.983	0.2	0.138
LK-2						0.299	0.275	0.322	0.233	0.244	0.787	0.752	0.746	0.173	0.181	1.32	0.923	0.861	0.18	0.162
NCI-H1395						0.433	0.36	0.424	0.417	0.369	1.06	0.635	0.611	0.353	0.369	0.911	1.1	0.691	0.339	0.327
A549																0.962	0.901	0.427	0.0288	0.0231
NCI-H2170						0.599	0.487	0.598	0.315	0.762	0.945	0.916	0.775	0.137	0.176	1.03	1.02	0.799	0.219	0.208
NCI-H1563	0.883	0.861	0.712	0.883	0.879	0.465	0.416	0.469	0.461	0.425						0.905	1.06	0.923	0.67	0.552
ABC-1	0.272	0.306	0.299	0.254	0.358		0.578	0.622	0.573	0.614						1.18	0.868	0.711	0.249	0.187
